In patent US10766902B2, “Wee-1 inhibiting pyrazolopyrimidinone compounds” (ALMAC DISCOVERY LIMITED, priority 2016, dated 2020):
Where two headings read alike, the source gives them in different places.

What was measured:
A427 cells = assay: Cell viability (CellTiter-Glo), A427; type: cell-based; conditions: Homo sapiens, A-427; cell viability after 72 hours
Experimental: (§1) All cell lines (HT29, A427, A498, SKLU-1) were obtained from the American Type Culture Collection (ATCC), maintained in the recommended media supplemented with 10% (v/v) FBS, 1% (v/v) Penicillin/streptomycin and kept at 37° C. in a humidified atmosphere with 5% CO2. Cells were seeded in 96 wp format typically at a seeding density of 3500-5000 cells/well and treated after 24 hours with increasing concentration of compound from 0 to 100 μM in ½ log unit increments. Cell viability was assessed after 72 hours (HT29, A427) or after 6 days (SKLU-1, A498) by CellTiter-Glo® as recommended by the manufacturer's instructions (Promega). Analysis and EC50 values were derived using GraphPadPrism.

HT29 cells = assay: Cell viability (CellTiter-Glo), HT29; type: cell-based; conditions: Homo sapiens, HT-29; cell viability after 72 hours
Experimental: as §1

[1] = test system: phosphorylation of Cdc2 at Tyr15; assay: ELISA for phosphorylation of Cdc2 at Tyr15 in HT-29 / HCT-116 cells; type: cell-based; conditions: Homo sapiens, read-out: ELISA p-CDC2 EC50
Experimental: Method 2: Determining the Effect of Compounds on the Phosphorylation of Cdc2 at Tyr15
The colorectal cancer cell lines HT-29 and HCT-116 were purchased from the ATCC and routinely maintained in McCoy's Medium (Invitrogen) supplemented with 10% Foetal Calf Serum.
The cells were trypsinised from their growing vessel and counted, 100 μL of cell suspension containing 6000 cells was pipetted into black 96 well Co-star plates and incubated overnight to allow adherence to the surface at a temperature of 37° C. and an atmosphere of 5% CO2. Test compounds were formulated in DMSO and diluted in foetal calf serum supplemented medium. Incubating medium was removed by aspiration and diluted drug supplemented medium added to each well.
The plate was returned to the incubator for an additional eight hours at 37° C. and an atmosphere of 5% CO2. Post incubation, the drug supplemented medium was aspirated from each well and the cells were washed once in ice-cold phosphate buffered saline (PBS). 100 μL of cell lysis buffer (Cell Signalling Technologies #9803) containing 20 mM Tris, 150 mM NaCl, 1 mM EDTA, 1 mM EGTA, 1% Triton-X100, 2.5 mM sodium pyrophosphate, 1 mM glycerophosphate, 1 mM Na3VO4 and 1 μg/mL leupeptin was added to each well of the 96 well plate and incubated at 4° C. for 30 min. The samples on the plate were snap frozen at −80° C. until required. Immediately before the continuation of the assay, the sample plate was thawed and centrifuged at 4° C. for 10 min and the supernatant transferred to secondary tubes or 96 well plate.
Cell supernatant was mixed in a ratio of 1:1 with sample dilutent buffer and vortexed for one minute. 100 μL of diluted sample was pipetted into pre-coated plates containing a rabbit polyclonal antibody for phospho-cdc2 (Tyr15) (Cell Signalling Technologies PathScan kit #7176). The plate was sealed and incubated overnight at 4° C.
The plate seal was removed and the well contents aspirated, followed by 3×5 min washes with 200 μL of diluted wash buffer. Between each wash the plate was tapped firmly onto blotting paper to ensure the removal of all kit solution. 100 μL of kit detection antibody was added to each well and the plate re-sealed and incubated at 37° C. for 1 h. Post incubation the plate was washed and processed in a similar manner to that previously described.
100 μL of horseradish peroxidise-linked secondary antibody was added to each test well, the plate sealed and incubated for thirty minutes at 37° C. Post incubation, the plate was washed as previously stated, followed by the addition of 100 μL of 3,3′,5,5′ tetramethylbenzidine (TMB reagent). The plate was sealed and incubated at RT for 30 min.
100 μL of stop solution was added to each well and the underside of the plate wiped with a lint-free tissue, prior to spectrophotometric determination. Absorbance from each well was read at 450 nm within 30 min of the addition of the stop solution.
The percentage of phospho-cdc2 was calculated compared to DMSO control and plotted versus the concentration of inhibitor using GraphPad Prism. Data was fitted using non-linear regression analysis and IC50 values generated.

Wee-1 kinase = Wee-1 kinase (Homo sapiens (Human), UniProt P30291); assay: Measurement of Wee-1 kinase activity (ADP-Glo luminescence); type: biochemical
Sequence of Wee-1 kinase (P30291 whole entry): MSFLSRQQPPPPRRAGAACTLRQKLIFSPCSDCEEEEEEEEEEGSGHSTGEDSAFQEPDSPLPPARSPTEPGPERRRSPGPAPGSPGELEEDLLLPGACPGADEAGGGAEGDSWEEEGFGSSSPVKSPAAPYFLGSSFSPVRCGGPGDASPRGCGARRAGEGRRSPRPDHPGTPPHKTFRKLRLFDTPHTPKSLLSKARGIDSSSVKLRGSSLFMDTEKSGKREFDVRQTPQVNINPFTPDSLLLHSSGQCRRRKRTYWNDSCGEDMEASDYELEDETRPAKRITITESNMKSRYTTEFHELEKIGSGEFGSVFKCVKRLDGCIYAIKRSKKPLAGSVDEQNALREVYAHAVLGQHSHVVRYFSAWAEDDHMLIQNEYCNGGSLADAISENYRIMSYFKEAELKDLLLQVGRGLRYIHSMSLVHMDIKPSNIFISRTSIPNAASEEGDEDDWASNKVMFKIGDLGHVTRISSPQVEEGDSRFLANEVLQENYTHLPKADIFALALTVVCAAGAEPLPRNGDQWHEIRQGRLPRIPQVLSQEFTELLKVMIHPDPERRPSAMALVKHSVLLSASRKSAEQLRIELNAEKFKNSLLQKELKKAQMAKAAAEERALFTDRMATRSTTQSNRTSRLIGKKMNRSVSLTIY
Method in brief: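 Activated Wee-1 preincubated 30 min at RT with compound in Tris/MgCl2 buffer with BSA and DTT, then reacted 1 h at RT with poly(Lys,Tyr 4:1) (2.0 μg/mL) and 30 μM ATP as added aliquot. ADP formed measured by ADP-Glo luminescence; IC50 by non-linear regression of % inhibition.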

A498 cells = assay: Cell viability (CellTiter-Glo), A498; type: cell-based; conditions: Homo sapiens, A498, 144 h; cell viability after 6 days
Experimental: as §1

SK-LU-1 cells = assay: Cell viability (CellTiter-Glo), SK-LU-1; type: cell-based; conditions: Homo sapiens, SK-LU-1, 144 h; cell viability after 6 days
Experimental: as §1

[2] = 8 h, Table 2, colorectal cancer cells, eight hours incubation

EC50 (HT29 cells) [µM]	EC50 [1, 2] [µM]	EC50 ([1]; Table 3) [µM]	IC50 (Wee-1 kinase; Table 7, data obtained as described in the experimental section of the current invention, read-out: Wee-1/nM) [nM]	IC50 (Wee-1 kinase; read-out: Wee1 IC50) [nM]	EC50 (SK-LU-1 cells) [µM]	Structure (SMILES)	EC50 (A427 cells) [µM]	EC50 (A498 cells) [µM]
0.027	0.026	0.026	0.5	0.5	0.03	C=CCn1c(=O)c2cnc(Nc3ccc(N4CCOCC4)cc3)nc2n1-c1cccc(N=S(C)(C)=O)n1 [Example 12, 1-(6-{[Dimethyl(oxo)-λ^6-sulfanylidene]amino}pyridine-2-yl)-6-{[4-(morpholin-4-yl)phenyl]amino}-2-(prop-2-en-1-yl)-1H,2H,3H-pyrazolo[3,4-d]pyrimidin-3-one]	0.027	0.027
0.032	0.005	0.005	–	0.3	0.035	C=CCn1c(=O)c2cnc(Nc3ccc(N4CCO[C@H](COC)C4)cc3)nc2n1-c1cccc(N=S(C)(C)=O)n1 [Example 54, 1-(6-{[Dimethyl(oxo)-λ^6-sulfanylidene]amino}pyridin-2-yl)-6-({4-[(2S)-2-(methoxymethyl)morpholin-4-yl]phenyl}amino)-2-(prop-2-en-1-yl)-1H,2H,3H-pyrazolo[3,4-d]pyrimidin-3-one]	0.017	0.016
